Test results published in paper PMC2719696, “Kinetics and Cellular Site of Glycolipid Loading Control the Outcome of Natural Killer T Cell Activation” (Immunity, 2009).

System: splenocytes
Test: MβCD treatment of glycolipid-pulsed DCs, stimulation of autologous splenocytes in vitro
Type: cell-based, C57BL/6 mice
Settings: DCs pulsed 18 hr, 10 mM MβCD 15 min, 24 hr culture
Procedure: Figure 7 Functional Consequences of Membrane Lipid Raft Association of Glycolipid-Loaded CD1d Molecules (A) C57BL/6 BMDCs were pulsed for 18 hr with the indicated glycolipids, washed, and incubated for 15 min in medium alone (hatched bars) or medium containing 10 mM MβCD (solid bars). Cells were then fixed (1% paraformaldehyde) and used for stimulating autologous splenocytes for 24 hr, after which supernatant concentrations of IFN-γ and IL-4 were measured. Dotted lines indicate the background levels of cytokines in cultures with BMDC pulsed with vehicle only. Means and standard deviations for triplicate cultures are shown, and results are representative of three experiments. ^∗∗p < 0.01 (ANOVA, Bonferroni post-test). (B) Effect of MβCD on in vivo presentation of αGalCer analogs. Splenic DCs were pulsed ex vivo with the indicated glycolipids for 18 hr and then incubated for 15 min in medium without (−, hatched bars) or with 10 mM MβCD (+, solid bars). After extensive washing, the cells were injected i.p. into naive C57BL/6 mice (10^6 cells/mouse). Serum was assayed for IL-4 at 2 hr and for IFN-γ at 24 hr postinjection. Data shown are means and standard deviations for pooled data from two experiments that had three mice per group. ^∗∗p < 0.01 (ANOVA, Bonferroni post-test); NS, not significant (p > 0.05).
For in vitro stimulation, murine iNKT hybridomas at 5 × 10^4 cells/well in 96-well plates were stimulated with an equal number of either JAWS II cells or transfected A20 cells in complete medium with glycolipids for 12 hr at 37°C, and levels of murine IL-2 secretion were determined. For some experiments, APCs were preincubated with glycolipids for 12 hr or fixed with paraformaldehyde (1% for 2 min at RT) prior to the addition of iNKT cell hybridomas. For in vitro stimulation of murine splenic iNKT cells, splenocytes from BALB/c or C57BL/6 mice were plated at 5 × 10^5 cells per well in complete medium in 96-well plates and stimulated with glycolipids for 48 hr at 37°C. Subsequently the levels of IL-4, IL-13, and IFN-γ in culture supernatants were quantified by capture ELISA. For assays with methyl-β-cyclodextrin (MβCD) treatment of APCs, we prepared splenic DCs with a CD11c^+ cell isolation kit from Miltenyi Biotech from mice that had been injected s.c. 14 days previously with 10^5 Flt3-ligand-secreting B16 melanoma cells to increase the yield ([Mach et al., 2000]). Purified CD11c^+ cells were cultured in complete medium for 18 hr with glycolipids (100 nM) as indicated, washed, and incubated at 37°C for 15 min in medium with or without 10 mM MβCD (Sigma-Aldrich) and subsequently fixed (1% paraformaldehyde) and cultured in 96-well plates at 2 × 10^5 cells/well with autologous splenocytes (4 × 10^5 cells per well). […]

Row | Compound | effect of MβCD treatment of pulsed DCs on stimulation of IFN-γ production by splenocytes | effect of MβCD treatment of pulsed DCs on stimulation of IL-4
1 | CCCCCCCCCCCCCCC(O)C(O)C(COC1OC(CO)C(O)C(O)C1O)NC(=O)CCCCCCCCC (stereo not shown) [αGalCer-C10:0] | unaffected by MβCD | 
2 | CCCCCC=CCC=CCCCCCCCCCC(=O)NC(COC1OC(CO)C(O)C(O)C1O)C(O)C(O)CCCCCCCCCCCCCC (stereo not shown) [αGalCer-C20:2] | unaffected by MβCD | 
3 | CCCCCCCCCCCCCCCCCCCCCCCCCC(=O)NC(COC1OC(CO)C(O)C(O)C1O)C(O)C(O)CCCCCCCCCCCCCC (stereo not shown) [αGalCer-C26:0, reference compound] | markedly reduced | no effect
